Measurements published in patent publication US20210253557A1, “SUBSTITUTED TRIAZOLE DERIVATIVES AND USES THEREOF” (Bayer Pharma Aktiengesellschaft, priority 2017, published 2021).
Where a name gives a salt, the structure may show the parent alone.

Assays:
human V2 receptor = target: T1, human V2 receptor (Homo sapiens, UniProt P30518); assay: Cellular in vitro assay for determining vasopressin receptor activity (V2, CRE-luciferase); format: cell-based; conditions: CHO cell line transfected with the human V2 receptor; [Arg8]-vasopressin at EC50 concentration; read-out: IC50 hV2
T1 construct: expressed in transfected cells; host or cells: CHO K1 (ATCC) expressing firefly luciferase under a CRE-responsive promoter
T1 sequence (P30518 whole entry): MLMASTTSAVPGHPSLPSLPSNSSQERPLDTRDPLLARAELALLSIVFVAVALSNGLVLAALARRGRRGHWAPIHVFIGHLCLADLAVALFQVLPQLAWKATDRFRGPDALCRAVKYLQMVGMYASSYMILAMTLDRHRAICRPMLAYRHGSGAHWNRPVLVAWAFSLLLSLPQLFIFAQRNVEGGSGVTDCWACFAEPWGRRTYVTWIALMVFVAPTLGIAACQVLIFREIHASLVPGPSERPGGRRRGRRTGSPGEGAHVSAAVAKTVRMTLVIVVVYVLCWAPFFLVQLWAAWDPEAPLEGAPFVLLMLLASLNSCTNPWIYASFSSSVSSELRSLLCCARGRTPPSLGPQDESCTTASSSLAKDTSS
Procedure, shortened: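 Antagonism was measured as inhibition of a 3-h, EC50-level [Arg8]-vasopressin stimulation, with compounds tested at several concentrations, yielding IC50 values. The read-out was cAMP-driven CRE-luciferase luminescence after lysis, in recombinant CHO K1 cells carrying human V2 receptor. Cells were seeded in 2% FCS DMEM/F12 one day earlier.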

human V1a receptor = target: T2, human V1a receptor (Homo sapiens, UniProt P37288); assay: Cellular in vitro assay for determining vasopressin receptor activity (V1a, aequorin luminescence); format: cell-based; conditions: for IC50: CHO cell line transfected with the human V1a receptor, [Arg8]-vasopressin at EC50 concentration, read-out: IC50 hV1a; for ratio IC50 hV2/hV1a: selectivity ratio of IC50 hV2 to IC50 hV1a
T2 construct: expressed in transfected cells; host or cells: CHO K1 (ATCC), also stably transfected with a modified aequorin
T2 sequence (P37288 whole entry): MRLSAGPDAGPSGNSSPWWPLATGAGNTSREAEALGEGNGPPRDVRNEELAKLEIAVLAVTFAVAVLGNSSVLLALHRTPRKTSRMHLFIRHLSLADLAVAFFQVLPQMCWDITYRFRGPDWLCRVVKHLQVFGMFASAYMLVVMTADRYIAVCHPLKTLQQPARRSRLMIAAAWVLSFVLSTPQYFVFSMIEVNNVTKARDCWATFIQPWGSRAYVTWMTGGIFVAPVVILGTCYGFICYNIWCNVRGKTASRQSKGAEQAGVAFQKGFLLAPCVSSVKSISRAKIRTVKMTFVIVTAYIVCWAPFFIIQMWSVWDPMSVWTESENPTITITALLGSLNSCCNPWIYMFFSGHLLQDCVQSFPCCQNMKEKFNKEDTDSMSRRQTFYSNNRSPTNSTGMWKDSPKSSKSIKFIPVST

Row | Structure (SMILES) | IC50 (human V2 receptor) [nM] | IC50 (human V1a receptor) [nM] | ratio IC50 hV2/hV1a (human V1a receptor)
1 | C[C@@H](OC(N)=O)c1nc(Cn2nc(-c3ccc(Cl)cc3)n(C[C@H](O)C(F)(F)F)c2=O)nn1-c1ccccc1OC(F)F [Example 6, (1R)-1-{3-({3-(4-Chlorophenyl)-5-oxo-4-[(2S)-3,3,3-trifluoro-2-hydroxypropyl]-4,5-dihydro-1H-1,2,4-triazol-1-yl}methyl)-1-[2-(difluoromethoxy)phenyl]-1H-1,2,4-triazol-5-yl}ethyl Carbamate] | 20.7 | 0.81 | 25.6
2 | CC(=O)NC(CO)c1nc(Cn2nc(-c3ccc(Cl)cc3)n(C[C@H](O)C(F)(F)F)c2=O)nn1-c1ncccc1OC(F)(F)F (single isomer, unassigned) [Example 122] | 280 | 6.35 | 44.1
3 | C[C@@H](OC(N)=O)c1nc(Cn2nc(-c3ccc(Cl)cc3)n(C[C@H](O)C(F)(F)F)c2=O)nn1-c1ccccn1 [Example 11, (1R)-1-[3-({3-(4-Chlorophenyl)-5-oxo-4-[(2S)-3,3,3-trifluoro-2-hydroxypropyl]-4,5-dihydro-1H-1,2,4-triazol-1-yl}methyl)-1-(pyridin-2-yl)-1H-1,2,4-triazol-5-yl]ethyl Carbamate] | 225 | 115 | 2.0
4 | CN1C(=O)CCC1c1nc(Cn2nc(-c3ccc(Cl)cc3)n(C[C@H](O)C(F)(F)F)c2=O)nn1CCC(F)(F)F (single isomer, unassigned) [Example 131] | 1540 | 9.55 | 161.3
5 | O=C(NC(CO)c1nc(Cn2nc(-c3ccc(Cl)cc3)n(C[C@H](O)C(F)(F)F)c2=O)nn1-c1ccccc1Cl)C(F)(F)F (single isomer, unassigned) [Example 97] | 20 | 4.45 | 4.5
6 | CN1C(=O)CCC1c1nc(Cn2nc(-c3ccc(Cl)cc3)n(C[C@H](O)C(F)(F)F)c2=O)nn1CCC(F)(F)F (mixture of isomers) [Example 130, 5-(4-Chlorophenyl)-2-({5-[1-methyl-5-oxopyrrolidin-2-yl]-1-(3,3,3-trifluoropropyl)-1H-1,2,4-triazol-3-yl}methyl)-4-[(2S)-3,3,3-trifluoro-2-hydroxypropyl]-2,4-dihydro-3H-1,2,4-triazol-3-one] | 2680 | 21 | 127.9
7 | C[C@H](OC(N)=O)c1nc(Cn2nc(-c3ccc(Cl)cc3)n(C[C@H](O)C(F)(F)F)c2=O)nn1-c1ncccc1Cl [Example 14, (1S)-1-[3-({3-(4-Chlorophenyl)-5-oxo-4-[(2S)-3,3,3-trifluoro-2-hydroxypropyl]-4,5-dihydro-1H-1,2,4-triazol-1-yl}methyl)-1-(3-chloropyridin-2-yl)-1H-1,2,4-triazol-5-yl]ethyl Carbamate] | 52 | 1.75 | 29.7
8 | C[C@H](OC(N)=O)c1nc(Cn2nc(-c3ccc(Cl)cc3)n(C[C@H](O)C(F)(F)F)c2=O)nn1-c1ccccc1OC(F)(F)F [Example 7, (1S)-1-{3-({3-(4-Chlorophenyl)-5-oxo-4-[(2S)-3,3,3-trifluoro-2-hydroxypropyl]-4,5-dihydro-1H-1,2,4-triazol-1-yl}methyl)-1-[2-(trifluoromethoxy)phenyl]-1H-1,2,4-triazol-5-yl}ethyl Carbamate] | 26.7 | 3.6 | 7.4
9 | CC(C)(C)OCC(N)c1nc(Cn2nc(-c3ccc(Cl)cc3)n(C[C@H](O)C(F)(F)F)c2=O)nn1-c1ccccc1Cl (mixture of isomers) [Example 80, 2-({5-[1-Amino-2-tert-butoxyethyl]-1-(2-chlorophenyl)-1H-1,2,4-triazol-3-yl}methyl)-5-(4-chlorophenyl)-4-[(2S)-3,3,3-trifluoro-2-hydroxypropyl]-2,4-dihydro-3H-1,2,4-triazol-3-one] | 19 | 0.61 | 31.4
10 | O=C1NC(c2nc(Cn3nc(-c4ccc(Cl)cc4)n(C[C@H](O)C(F)(F)F)c3=O)nn2-c2ccccc2Cl)CO1 (single isomer, unassigned) [Example 99] | 21 | 3.3 | 6.4
11 | CC(=O)NC(CO)c1nc(Cn2nc(-c3ccc(Cl)cc3)n(C[C@H](O)C(F)(F)F)c2=O)nn1-c1ncccc1OC(F)(F)F (mixture of isomers) [Example 120, N-[1-{3-({3-(4-Chlorophenyl)-5-oxo-4-[(2S)-3,3,3-trifluoro-2-hydroxypropyl]-4,5-dihydro-1H-1,2,4-triazol-1-yl}methyl)-1-[3-(trifluoromethoxy)pyridin-2-yl]-1H-1,2,4-triazol-5-yl}-2-hydroxyethyl]acetamide] | 410 | 12.5 | 32.8
12 | CC(=O)NC(C)c1nc(Cn2nc(-c3ccc(Cl)cc3)n(C[C@H](O)C(F)(F)F)c2=O)nn1-c1ncccc1Cl (single isomer, unassigned) [Example 108] | 69.4 | 6.03 | 11.5
13 | CS(=O)(=O)NC(CO)c1nc(Cn2nc(-c3ccc(Cl)cc3)n(C[C@H](O)C(F)(F)F)c2=O)nn1-c1ccccc1Cl (single isomer, unassigned) [Example 87] | 35.5 | 2.25 | 15.8
14 | CC(NC(=O)C(F)(F)F)c1nc(Cn2nc(-c3ccc(Cl)cc3)n(C[C@H](O)C(F)(F)F)c2=O)nn1-c1ccccc1Cl (single isomer, unassigned) [Example 74] | 18 | 5.35 | 3.4
15 | C[C@H](OC(N)=O)c1nc(Cn2nc(-c3ccc(Cl)cc3)n(C[C@H](O)C(F)(F)F)c2=O)nn1-c1ccccc1S(N)(=O)=O [Example 9, (1S)-1-[3-({3-(4-Chlorophenyl)-5-oxo-4-[(2S)-3,3,3-trifluoro-2-hydroxypropyl]-4,5-dihydro-1H-1,2,4-triazol-1-yl}methyl)-1-(2-sulfamoylphenyl)-1H-1,2,4-triazol-5-yl]ethyl Carbamate] | 135 | 31.5 | 4.3

Stronger by IC50 (human V2 receptor), values ahead:

Row | IC50 (human V2 receptor) [nM] | IC50 (human V1a receptor) [nM] | ratio IC50 hV2/hV1a (human V1a receptor) | Structure (SMILES)
16 | 5.29 | 18.3 | 0.3 | CC(N)c1nc(Cn2nc(-c3ccc(Cl)cc3)n(C[C@H](O)C(F)(F)F)c2=O)nn1-c1cccc(F)c1 (mixture of isomers) [Example 53, 2-({5-[1-Aminoethyl]-1-(3-fluorophenyl)-1H-1,2,4-triazol-3-yl}methyl)-5-(4-chlorophenyl)-4-[(2S)-3,3,3-trifluoro-2-hydroxypropyl]-2,4-dihydro-3H-1,2,4-triazol-3-one trifluoroacetate]
17 | 2 | 0.97 | 2.1 | CS(=O)(=O)NC(CO)c1nc(Cn2nc(-c3ccc(Cl)cc3)n(C[C@H](O)C(F)(F)F)c2=O)nn1-c1ccccc1Cl (single isomer, unassigned) [Example 86]
18 | 1.99 | 41.4 | – | C[C@H](OC(N)=O)c1nc(Cn2nc(-c3ccc(Cl)cc3)n(C[C@H](O)C(F)(F)F)c2=O)nn1-c1cccc(Cl)c1 [Example 35, (1S)-1-[1-(3-Chlorophenyl)-3-({3-(4-chlorophenyl)-5-oxo-4-[(2S)-3,3,3-trifluoro-2-hydroxypropyl]-4,5-dihydro-1H-1,2,4-triazol-1-yl}methyl)-1H-1,2,4-triazol-5-yl]ethyl Carbamate]
19 | 2.75 | 0.64 | 4.3 | C[C@H](OC(N)=O)c1nc(Cn2nc(-c3ccc(Cl)cc3)n(C[C@H](OC(N)=O)C(F)(F)F)c2=O)nn1-c1ccccc1Cl [Example 34, (2S)-3-[1-({5-[(1S)-1-(Carbamoyloxy)ethyl]-1-(2-chlorophenyl)-1H-1,2,4-triazol-3-yl}methyl)-3-(4-chlorophenyl)-5-oxo-1,5-dihydro-4H-1,2,4-triazol-4-yl]-1,1,1-trifluoropropan-2-yl Carbamate]
20 | 5.93 | 5.59 | 1.1 | CCNC(=O)OCc1nc(Cn2nc(-c3ccc(Cl)cc3)n(C[C@H](O)C(F)(F)F)c2=O)nn1-c1cccc(F)c1 [Example 43, [3-({3-(4-Chlorophenyl)-5-oxo-4-[(2S)-3,3,3-trifluoro-2-hydroxypropyl]-4,5-dihydro-1H-1,2,4-triazol-1-yl}methyl)-1-(3-fluorophenyl)-1H-1,2,4-triazol-5-yl]methyl Ethylcarbamate]
21 | 9.69 | 2.01 | 4.8 | COc1ccccc1-n1nc(Cn2nc(-c3ccc(Cl)cc3)n(C[C@H](O)C(F)(F)F)c2=O)nc1C(C)OC(N)=O (single isomer, unassigned) [Example 41]
22 | 4.5 | 0.97 | 4.6 | CC(NS(C)(=O)=O)c1nc(Cn2nc(-c3ccc(Cl)cc3)n(C[C@H](O)C(F)(F)F)c2=O)nn1-c1ccccc1Cl (single isomer, unassigned) [Example 68]
23 | 4.82 | 5.29 | 0.9 | NC(=O)OCc1nc(Cn2nc(-c3ccc(Cl)cc3)n(C[C@H](O)C(F)(F)F)c2=O)nn1-c1cccc(F)c1 [Example 26, [3-({3-(4-Chlorophenyl)-5-oxo-4-[(2S)-3,3,3-trifluoro-2-hydroxypropyl]-4,5-dihydro-1H-1,2,4-triazol-1-yl}methyl)-1-(3-fluorophenyl)-1H-1,2,4-triazol-5-yl]methyl Carbamate]
